For this experiment, the target named is Bcl-2 (Homo sapiens (Human), UniProt P10415). In words: Time Resolved-Fluorescence Resonance Energy Transfer (TR-FRET) Bcl-2 binding assay with F-Bak peptide probe. The settings on record: GST-Bcl-2 1 nM, F-Bak peptide probe 100 nM, Tb-anti-GST antibody 1 nM; Ki by Wang's equation. The procedure:
Determination of the utility of compounds having Formula (I) as binders to and inhibitors of anti-apoptotic Bcl-2 proteins was performed using the Time Resolved-Fluorescence Resonance Energy Transfer (TR-FRET) Assay. Tb-anti-GST antibody was purchased from Invitrogen (Catalog No. PV4216).
Representative compounds were serially diluted in dimethyl sulfoxide (DMSO) starting at 50 μM (2× starting concentration; 10% DMSO) and 10 μL were transferred into a 384-well plate. The samples are then mixed on a shaker for 1 minute and incubated for an additional 3 hours at room temperature. For each assay, the probe/antibody and protein/probe/antibody were included on each assay plate as negative and positive controls, respectively. Fluorescence was measured on the ENVISION plate reader (Perkin Elmer) using a 340/35 nm excitation filter and 520/525 (F-Bak peptide) and 495/510 nm (Tb-labeled […] antibody) emission filters Inhibition constants (Ki) are shown in TABLE 2 below and were determined using Wang's equation (Wang Z.-X. An Exact Mathematical Expression For Describing Competitive Binding Of Two Different Ligands To A Protein Molecule. FEBS Lett. 1995, 360:111-4).
The inhibition constant (Ki) is the dissociation constant of an enzyme-inhibitor complex or a protein/small molecule complex, wherein the small molecule is inhibiting binding of one protein to another protein. So a large K, value indicates a low binding affinity and a small Ki value indicates a high binding affinity.
The compounds are therefore expected to have utility in treatment of diseases during which anti-apoptotic Bcl-2 protein is expressed.

Usually Ki stands for the equilibrium dissociation constant of an inhibitor or competing ligand from its target. A higher Ki goes with lower affinity.

Sequence of Bcl-2 (P10415 whole entry): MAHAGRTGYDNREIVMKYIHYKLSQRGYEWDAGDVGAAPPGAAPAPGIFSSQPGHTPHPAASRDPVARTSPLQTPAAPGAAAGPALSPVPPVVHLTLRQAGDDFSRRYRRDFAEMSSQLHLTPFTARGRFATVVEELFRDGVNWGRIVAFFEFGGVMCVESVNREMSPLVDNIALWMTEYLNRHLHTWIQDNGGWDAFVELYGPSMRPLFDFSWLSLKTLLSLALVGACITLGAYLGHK

In turn, `Cc1cc(C)n2nc(S(=O)(=O)NC(=O)c3ccc(N4CCN(CC5=C(c6ccc(Cl)cc6)CC(C)(C)CC5)CC4)cc3Oc3cc4cc[nH]c4c(F)c3F)nc2n1` [Example 42, 4-(4-{[2-(4-chlorophenyl)-4,4-dimethylcyclohex-1-en-1-yl]methyl}piperazin-1-yl)-2-[(6,7-difluoro-1H-indol-5-yl)oxy]-N-[(5,7-dimethyl[1,2,4]triazolo[1,5-a]pyrimidin-2-yl)sulfonyl]benzamide] showed a Ki of 0.039 nM. Then `Cc1cc(-c2oncc2S(=O)(=O)NC(=O)c2ccc(N3CCN(Cc4ccccc4-c4ccc(Cl)cc4)CC3)cc2)n(C)n1` [Example 23, 4-{4-[(4′-chloro-1,1′-biphenyl-2-yl)methyl]piperazin-1-yl}-N-{[5-(1,3-dimethyl-1H-pyrazol-5-yl)isoxazol-4-yl]sulfonyl}benzamide], with 447 nM; and `O=C(NS(=O)(=O)c1cccs1)c1ccc(N2CCN(Cc3ccccc3-c3ccc(Cl)cc3)CC2)cc1` [Example 19, 4-{4-[(4′-chloro-1,1′-biphenyl-2-yl)methyl]piperazin-1-yl}-N-(thien-2-ylsulfonyl)benz amide], with 234 nM; and `COC1(Cc2cccc(C)c2)CCN(c2ccc(C(=O)NS(=O)(=O)c3cc([N+](=O)[O-])c(N[C@H](CCN(C)C)CSc4ccccc4)s3)cc2)CC1` [Example 2, N-{[5-({(1R)-3-(dimethylamino)-1-[(phenylthio)methyl]propyl}amino)-4-nitrothien-2-yl]sulfonyl}-4-[4-methoxy-4-(3-methylbenzyl)piperidin-1-yl]benzamide], with 82.9 nM. Consider `Cc1c(S(=O)(=O)NC(=O)c2ccc(N3CCN(Cc4ccccc4-c4ccc(Cl)cc4)CC3)cc2)sc2ccc(Br)cc12` [Example 25, N-[(5-bromo-3-methyl-1-benzothien-2-yl)sulfonyl]-4-{4-[(4′-chloro-1,1′-biphenyl-2-yl)methyl]piperazin-1-yl}benzamide], for which the affinity, expressed as Ki, was 372 nM.

(Values after patent US9156856B2, “Apoptosis-inducing agents for the treatment of cancer and immune and autoimmune diseases” (AbbVie Inc., priority 2009, dated 2015).)
